Experimental data from US20030156970A1, “Sulphur-free lignin and derivatives thereof for reducing the formation of slime and deposits in industrial plants” (priority 2000, published 2003).

Test system: slime and deposits in paper machine white water
Test: Slime and deposit formation in white water tanks, same test record as example 10 (example 12, lignin plus small quantity of biocide)
Parameters: species or system bacteria
Source text: The white water originated from the white water I circuit of a paper machine which produces wood-free paper with carbonate filler, used painted rejects and starch for the production of the stock and runs at a slightly alkaline pH. The white water was sampled after a re-start, before any slime combating systems were used. […] Seven tanks were filled with the white water up to the 5-litre mark, the magnetic agitators were switched on, as well as the thermostatically controlled heating systems which were set to 36° C. Weighed slime measuring boards were fully immersed in the liquid. The microbial activity in the test tanks was checked by plating out on bacterial count-Agar from the company of Merck. The additions to the slime check to be compared were diluted in a suitable way and a certain quantity was added to each test tank. After 72 hours the bacterial counts were determined again and the measuring boards covered in slime were carefully weighed. After the measurements after 72 hours the slime measur8ing boards were dried at 105° C. and again weighed in order to determine the dry weight of the stored material. The dried material was then removed from the boards and incinerated in a furnace in porcelain crucibles at 550° C. The ash was weighed back in order to measure the percentage of mineral substances in the original deposits. The whole experiment was repeated with various concentrations of the individual slime combating products.
The same test record as in example 10 was followed, however using the following products

[1] = 70 ppm active (combination 50 + 20), 72 hrs

## O=[N+]([O-])C(Br)(CO)CO [bromiumnitropropane diol, 2-bromium-2-nitropropane-1,3-diol]
[1]
  Ash content in deposits in % of the solids content of the control: 17%
  Dry weight of the deposit: 1.026 g
  Moist weight of the deposit: 1.020 g
  Solids content in deposit: 12%
70 ppm active (combination 50 + 20), 72 hrs, control = 100
  Solids content in deposits in % of the control: 23%
Addition (active) 70 ppm per volume (combination 50 + 20 ppm), white water 4.7 g/l solids, start count 4.2 × 10^5
  Bacterial count after 72 hrs: 8.1 × 10^4 CFU/ml
